# Source: article PMC11944514, “Dengue Virus Inhibitors as Potential Broad-Spectrum Flavivirus Inhibitors” (Pharmaceuticals, 2025)
# pEC50: −log10 of the molar value. Where two headings read alike, the source gives them in different places.
# Legend:
# ZIKV = system: ZIKV; set-up: method as in PMID 29642580; conditions: reference inhibitor compound; cited from earlier work
# KUNV = conditions: cited from earlier work
# TBEV = conditions: cited from earlier work
# Vero E6 [1] = conditions: cited from earlier work
# Vero E6 [2] = system: Vero E6; set-up: method as in PMID 20837762; conditions: reference inhibitor compound; cited from earlier work
# DENV2 [3] = system: DENV2; set-up: method as in PMID 20837762; conditions: reference inhibitor compound; cited from earlier work
# [4] = xCELLigence real-time cytotoxicity assay (RTCA), CC50; format: cell-based; conditions: African green monkey, Vero E6 cells, 24 h of exposure
# Procedure: As compounds C1, C2, and C3 were relatively toxic (Figure 2A), we determined the selectivity index (SI) of the identified potential broad-spectrum flavivirus inhibitors. As the WST-1 assay tends to underestimate the toxic effect and is unable to detect cytostatic effects, the CC50 of the perspective compounds was measured using a more sensitive xCELLigence real-time cytotoxicity assay (RTCA). […] The full xCELLigence RTCA data are provided in the Supporting Information section (Figures S2 and S3). Thereafter, for each compound, the SI was calculated as a ratio of the CC50 of a compound against its EC50 [36].
# Vero E6 cells were seeded on a 16-well E-plate (ACEA Biosciences, Inc., San Diego, CA, USA ) at a density of 5 × 10^3 cells/well and allowed to adhere overnight. On the next day, the studied compounds were added at the final concentrations ranging from 0.078 μM to 5 μM with a two-fold dilution step for compounds C1, C2, and C3, and at the final concentrations ranging from 1.56 μM to 50 μM with a two-fold dilution step for compounds C5 and C6; 0.01% DMSO was used as a solvent control. The cells were incubated for 5 days, and the signals between the electrodes (impedance) were recorded using an RTCA xCELLigence machine (Agilent Technologies, Inc., Santa Clara, CA, USA). […] The CC50 values were calculated using GraphPad Prism 10.0 for Windows, GraphPad Software, v. 10.4.1, Boston, MA, USA, www.graphpad.com (accessed on 16 February 2025).
# DENV2-Nanoluc = assay: microbe, parasite or virus in culture; format: cell-based
# ZIKV-Nanoluc = assay: microbe, parasite or virus in culture; format: cell-based; conditions: for EC50: Zika virus, Vero C1008, read-out: ZIKV EC50, μM
# KUNV-Nanoluc = assay: organism not typed; format: cell-based; conditions: for EC50: Vero C1008, read-out: KUNV EC50, μM
# TBEV-Nanoluc = assay: microbe, parasite or virus in culture; format: cell-based
# [5] = system: New Guinea C strain of DENV2; conditions: human Huh7 cells infected for 48 h, Renilla luciferase assay; read-out: EC50 against the New Guinea C strain of DENV2; cited from earlier work
# Vero E6 cells = assay: WST-1 cell viability assay, Vero E6; format: cell-based, African green monkey; conditions: Vero E6, 48 h of exposure
# Procedure: The cytotoxic effect of all studied compounds was assessed using the WST-1 assay after 48 h of exposure. […] This observation can be explained by the fact that the compound C8 is resazurin, phenoxazine dye, also known as Alamar Blue, which is subject to irreversible metabolic reduction to the resorufin by live mammalian cells. Thus, the cytotoxic effect of this compound cannot be assessed by the WST-1 assay correctly. Therefore, the C8 cytotoxicity was further assessed using the resazurin cell viability assay. This assay allowed us to avoid the interference between the tested compound and dye and obtain more reliable results for colored compounds.
# Vero E6 or U2OS cells were seeded on the 96-well plate at a density of 1 × 10^4 cells/well and were allowed to adhere overnight. Next day, the cells were treated with the studied compounds at concentrations ranging from 1 to 100 μM with a ten-fold dilution step. As a solvent control, 0.01% DMSO (Sigma, St. Louis, MO, USA) was used. After 48 h of exposure, 10 μL of WST-1 (10 mg/mL) cell proliferation reagent (Roche, Cat. No. 11644807001) was added to each well, and plates were incubated at 37 °C, 5% CO2 for 2 h. The optical density was then measured at 450 nm using an Epoch Microplate Spectrophotometer (BioTek Instruments, Inc., Winooski, VT, USA). Four independent experiments were carried out in triplicates.
# DENV2-Nanoluc replicon = format: cell-based
# ZIKV-Nanoluc replicon = format: cell-based
# KUNV-Nanoluc replicon = format: cell-based
# TBEV-Nanoluc replicon = format: cell-based
# DENV2 [6] = system: DENV2; set-up: method as in PMID 25878766; conditions: BHK-21 cells; read-out: EC50, inhibition of DENV2 infection; cited from earlier work
smiles,measurement,setting,value
CCOC(=O)c1c(CSc2ccccc2)n(C)c2cc(Br)c(O)c(CN(C)C)c12 [Arbidol],pEC50,ZIKV,4.92
same,pEC50,KUNV,4.73
same,pEC50,TBEV,4.73
same,CC50,Vero E6 [1],89.7 µM
COc1cccc2c1C(=O)c1c(O)c3c(c(O)c1C2=O)C[C@@](O)(C(=O)CO)C[C@@H]3O[C@H]1C[C@H](N)[C@H](O)[C@H](C)O1 [Doxorubicin],CC50,Vero E6 [2],24 µM
same,pEC50,DENV2 [3],5.92
"CC(C)(C)Oc1cccc2nc(N)nc(N)c12 [Compound C2, 5-(tert-butoxy)quinazoline-2,4-diamine]",CC50 at 24 h,[4],0.31 µM
same,antiviral effect against DENV2-Nanoluc (initial screening),DENV2-Nanoluc,apparent dose-dependent antiviral effects
same,EC50,"DENV2-Nanoluc; Dengue virus, DENV2, Vero C1008, read-out: DENV2 EC50, μM",~0.13 µM
same,pEC50,"DENV2-Nanoluc; Dengue virus, DENV2, Vero C1008, read-out: EC50 against DENV2",~6.89
same,antiviral effect against ZIKV-Nanoluc (initial screening),ZIKV-Nanoluc,completely inhibited the ZIKV-Nanoluc replication at the maximum tested concentration
same,concentration at which a statistically significant antiviral effect appeared (ZIKV-Nanoluc),ZIKV-Nanoluc,0.2 µM
same,EC50,ZIKV-Nanoluc,0.48 µM
same,antiviral effect against KUNV-Nanoluc (initial screening),KUNV-Nanoluc,decreased the KUNV-Nanoluc activity only at the maximum tested concentrations
same,EC50,KUNV-Nanoluc,0.26 µM
same,antiviral effect against TBEV-Nanoluc (initial screening),TBEV-Nanoluc,clear dose-dependent antiviral effect
same,pEC50,[5],8.55
"CN1C(=O)C2(CC(=O)Nc3c2cnn3Cc2ccc(Cl)cc2)c2cc(Cl)ccc21 (stereo not shown) [Compound C6, 5-chloro-1′-[(4-chlorophenyl)methyl]-1-methyl-1,1′,2,5′,6′,7′-hexahydrospiro[indole-3,4′-pyrazolo[3,4-b]pyridine]-2,6′-dione]",CC50 at 24 h,[4],> 50 µM
same,antiviral effect against DENV2-Nanoluc (initial screening),DENV2-Nanoluc,apparent dose-dependent antiviral effects
same,antiviral effect against ZIKV-Nanoluc (initial screening),ZIKV-Nanoluc,partially inhibited the virus activity at this concentration
same,EC50,ZIKV-Nanoluc,23.9 µM
same,antiviral effect against KUNV-Nanoluc (initial screening),KUNV-Nanoluc,decreased the KUNV-Nanoluc activity only at the maximum tested concentrations
same,EC50,KUNV-Nanoluc,20.6 µM
same,antiviral effect against TBEV-Nanoluc (initial screening),TBEV-Nanoluc,clear dose-dependent antiviral effect
same,pEC50,TBEV-Nanoluc; read-out: TBEV EC50,4.86
same,cytotoxic effect (WST-1 assay),Vero E6 cells,no cytotoxic effect at the maximal tested concentration
same,antiviral effect against DENV2-Nanoluc replicon,DENV2-Nanoluc replicon,most active against all the studied viral replicons
same,antiviral effect against ZIKV-Nanoluc replicon,ZIKV-Nanoluc replicon,most active against all the studied viral replicons
same,antiviral effect against KUNV-Nanoluc replicon,KUNV-Nanoluc replicon,most active against all the studied viral replicons
same,antiviral effect against TBEV-Nanoluc replicon,TBEV-Nanoluc replicon,most active against all the studied viral replicons
same,pEC50,DENV2 [6],8.22
